The text below walks through data of patent US8492391B2, “Substituted 6-(2-hydroxybenzylamino)purine derivatives, their use as medicaments and compositions containing these derivatives” (Univerzita Palackeho V Olomouci, priority 2009, dated 2013).

The structures appear in SMILES notation.

For data set [1], the system named is p53, p21^WAF1, Mcl-1 in MCF-7 cells. Briefly: Immunoblotting of p53, p21WAF1 and Mcl-1 in MCF-7 cells. Format: cell-based, human. The method, then:
For immunoblotting, cell were detached with rubber policeman and washed three times with ice-cold PBS and lysed in buffer (50 mM Tris, pH 7.4, 250 mM NaCl, 5 mM EDTA, 50 mM NaF, 1 mM Na3VO4, 1% Nonidet P40) containing mixture of protease and phosphatase inhibitors (Sigma-Aldrich, USA). 20 μg of total proteins were separated by SDS-polyacrylamide gel electrophoresis (SDS-PAGE) and transferred onto nitrocellulose membranes. Membranes were blocked in 5% milk and 0.1% Tween 20 in PBS and probed overnight with specific monoclonal antibodies or rabbit polyclonal sera. Primary antibodies specific for p53 (DO-1, in house), p21^WAF1 (118, in house), PARP-1 (2C10, Sigma-Aldrich St Louis, Mo., USA), Mcl-1 (S-19, Santa Cruz, USA), all used at 1 μg/ml. All primary antibodies were diluted in PBS containing 5% powdered milk; 0.1% Tween 20. Peroxidase conjugated rabbit anti-mouse immunoglobulin or porcine anti-rabbit immunoglobulin antisera (DAKO, Denmark) were used as the secondary antibodies and visualised with ECL reagents (Amersham-Pharmacia, Little Chalfont, UK).
The induction of p53 protein was apparent in 4 hrs but enhanced level of p21^WAF1 protein was observed only 12 hours after treatment with compound 128 (FIG. 5). The periods of time 12 and 24 hrs were chosen, since the level of protein expression reached a steady state.
Background: Immunoblotting shows a protein as a band on a membrane.

In data set [2] the target is T1, CDK9/cyclin T (Homo sapiens, UniProt P50750).
T1 construct: made in house; host or cells: Sf9 insect cells, baculovirus co-infection
T1 sequence (P50750 whole entry, species assumed): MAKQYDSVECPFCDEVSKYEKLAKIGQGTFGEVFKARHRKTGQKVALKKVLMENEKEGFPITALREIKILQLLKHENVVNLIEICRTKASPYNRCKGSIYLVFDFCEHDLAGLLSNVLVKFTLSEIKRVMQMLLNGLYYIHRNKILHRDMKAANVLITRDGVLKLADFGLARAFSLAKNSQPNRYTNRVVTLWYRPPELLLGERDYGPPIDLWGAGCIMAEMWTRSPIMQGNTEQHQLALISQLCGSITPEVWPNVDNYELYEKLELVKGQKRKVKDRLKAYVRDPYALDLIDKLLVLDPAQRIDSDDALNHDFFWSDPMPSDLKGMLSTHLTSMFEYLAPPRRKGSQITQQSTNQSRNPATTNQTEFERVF
T1 sequence (O60563 whole entry partner, species assumed): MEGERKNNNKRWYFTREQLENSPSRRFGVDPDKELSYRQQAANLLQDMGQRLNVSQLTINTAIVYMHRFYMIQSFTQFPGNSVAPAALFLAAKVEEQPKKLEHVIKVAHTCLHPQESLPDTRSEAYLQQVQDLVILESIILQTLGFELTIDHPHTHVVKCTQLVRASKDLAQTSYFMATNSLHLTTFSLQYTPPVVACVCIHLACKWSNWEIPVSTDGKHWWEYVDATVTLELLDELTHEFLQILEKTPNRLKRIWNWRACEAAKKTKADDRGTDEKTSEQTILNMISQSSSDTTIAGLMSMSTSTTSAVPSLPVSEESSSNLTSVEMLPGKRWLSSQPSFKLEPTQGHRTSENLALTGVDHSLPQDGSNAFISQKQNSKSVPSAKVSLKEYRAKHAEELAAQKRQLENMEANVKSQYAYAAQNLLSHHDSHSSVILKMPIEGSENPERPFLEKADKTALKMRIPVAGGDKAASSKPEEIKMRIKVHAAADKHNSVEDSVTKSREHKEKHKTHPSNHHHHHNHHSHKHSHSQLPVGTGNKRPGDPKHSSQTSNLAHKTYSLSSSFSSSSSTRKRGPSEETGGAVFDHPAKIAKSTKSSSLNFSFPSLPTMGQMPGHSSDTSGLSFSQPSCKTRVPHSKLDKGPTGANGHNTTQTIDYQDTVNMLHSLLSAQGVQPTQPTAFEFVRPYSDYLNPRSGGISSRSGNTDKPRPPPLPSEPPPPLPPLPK
Briefly: CDK9/cyclin T kinase inhibition assay. It is filed as biochemical. The conditions noted are these: kinase inhibitory activity, 15 μM ATP, (YSPTSPS)3 peptide substrate. The method, then:
Selected compounds were tested for CDK1/cyclin B, CDK2/cyclin E, CDK5/p25, CDK7/cyclin H and CDK9/cyclin T inhibitory activity to determine the basic relationships between their structure and the inhibitory activity. Cdk/cyclin complexes were expressed in Sf9 cells co-infected with appropriate baculoviral construct. The cells were harvested 70 hours post infection in lysis buffer (50 mM Tris pH 7.4, 150 mM NaCl, 5 mM EDTA, 20 mM NaF, 1% Tween 20, protease inhibitors) for 30 min on ice and the soluble fraction was recovered by centrifugation at 14.000 g for […]. The protein extract was stored at −80° C. until use. The final point test system for kinase activity measurement was used to carry out experiments on the kinetics under linear conditions. […] ATP and tested compound in a final volume of 20 μl, all in reaction buffer: 50 mM Hepes pH 7.4, 10 mM MgCl2, 5 mM EGTA, 10 mM 2-glycerolphosphate, 1 mM NaF, 1 mM DTT and protease inhibitors. After 30 min, the incubations were stopped by adding 5% H3PO4 and then the proteins were separated by phosphocellulose binding. The measurement of kinase inhibition employed the digital imaging analyzer BAS 1800. The kinase activity was expressed as a percentage of maximum activity and the IC50 value was determined by graphic analysis. The kinase activity is expressed as a percentage of maximum activity (FIG. 1).

In data set [3] the test system is K562 (human chronic myelogenous leukaemia). Briefly: Calcein AM cytotoxicity assay, K562. Format: cell-based. The conditions noted are these: Homo sapiens, read-out: Cytotoxic activity IC50 (μM) K562. From the text: Cytotoxicity of the compounds is the major property determining their anticancer effect in vivo. One of the parameters used, as the basis for cytotoxicity assays, is the metabolic activity of viable cells. For example, a microtiter assay, which uses the Calcein AM, is now widely used to quantitate cell proliferation and cytotoxicity. For instance, this assay is used in drug screening programs and in chemosensitivity testing. Because only metabolically active cells cleave Calcein AM, these assays detect viable cells exclusively. The quantity of cleaved Calcein AM corresponds to the number of vital cells in the culture. We have been using the following cell lines: MCF7 (human breast adenocarcinoma), K562 (human chronic myelogenous leukaemia), HOS (human osteogenic sarcoma), HeLa (human cervical carcinoma), HL 60 (human promyelocytic leukaemia), G 361 (human malignant melanoma), CEM (human lymphoblastoid leukaemia). All cell lines were grown in DMEM medium (Gibco BRL) supplemented with 10% (v/v) fetal bovine serum and L-glutamine and maintained at 37° C. in a humidified atmosphere with 5% CO2. For cytotoxicity assays, 10^4 cells were seeded into each well of 96 well plate, allowed to stabilize for at least 2 h and then tested compounds were added at various concentrations ranging from 100 to 0.1 μM in triplicates. Three days after drug addition Calcein AM solution (Molecular Probes) was added and let to enter the cells for 1 hour. Fluorescence of viable cells was quantified using Fluoroskan Ascent (Microsystems).

The test system of data set [4] is A549 lung adenocarcinoma. Briefly: Human xenograft model of A549 lung adenocarcinoma. It is filed as in vivo. Conditions: 150 mg/kg orally twice daily. The method, then: More detailed analysis of anticancer activity of compound 128 was performed on human xenograft model of A549 lung adenocarcinoma transplanted to CD-1 SCID mice. Animals were transplanted subcutaneously with 2.10^6 A549 cells into lower back. Approximately one month later, majority of animals developed palpable tumors and therapy was initiated. The drug was given orally by gastric gavages in total volume of 200 μl/dose twice daily at dose 150 mg/kg in two chemotherapy cycles (Days 1-3 and 7-9). The compound 128 was solubilized in 5% N-methyl-2-pyrollidine, 30% polyethylene glycol 400, 65% tartar buffer (pH 3.0). Primary endpoint for analysis was reduction of tumor volume (10 mice/group), which was quantified by caliperation. Analysis of treated animals was preformed in comparison with vehicle treated mice. Body weight of experimental animals was also evaluated in parallel in order to reflect toxicity of the therapy. Comparative analysis of tumor volumes and body weights was performed using non-parametric t-test.
In general terms: A xenograft is tissue or cells of one species grown in another, often human tumour cells in immunodeficient mice.

Data set [5] has as its system p53. Briefly: p53-dependent transcription, β-galactosidase reporter in Arn8 cells. It is filed as cell-based, human. Also on record: key to p53 (effect): induction of p53 protein: ++: very strong; +: weak; −: no effect. From the text: Protein p53, accumulated in nuclei upon treatment by the compounds, then leads to trans-activation of natural cell cycle inhibitor p21^WAF1, further blocking the cell cycle. […] This allows qualitative as well as quantitative measurement of CDK inhibitors-induced p53 transcriptional activity via β-galactosidase assay. Then, the effect will be verified in treated cells by immunoblotting of proteins expressed under the control of p53. β-galactosidase activity of human melanoma cell line Arn8 was determined as described. […] Alternatively, β-galactosidase activity was quantified by measuring fluorescence of methylumbelliferyl-β-D-galactopyranoside cleavage product. Cell lines established from the human breast carcinoma (MCF-7) and the human melanoma (Arn8) cell lines were cultured in Dubecco's Modified Eagle Medium (DMEM) supplemented with 10% foetal bovine serum.
Effects of prepared compounds on activation of p53 protein were analysed in human melanoma cell line Arn8. […] The total β-galactosidase activity in Arn8 cells was quantified using a fluorimetric assay.

In the case of `CCC(CO)Nc1nc(NCc2cccc(OC)c2O)c2ncn(C(C)C)c2n1` (racemic) [Compound 128, (RS)-2-({6-[(2-hydroxy-3-methoxybenzyl)amino]-9-isopropyl-9-H-purin-2-yl}amino)butan-1-ol], the “expression of p53, p21^Waf1 and Mcl-1” value in data set [1] (MCF7, 24 h, concentration dependent, immunoblotting) was “accumulation of tumor suppressor protein p53, expression of p53-regulated CDK inhibitor p21^Waf1 and downregulation of antiapoptotic protein Mcl-1”. Further, in data set [1] (MCF-7 cells), the “time after treatment at which enhanced level of p21^WAF1 protein was observed” value came to 12 h and the “time at which induction of p53 protein was apparent” value amounted to 4 h. Moreover, in data set [2], the IC50 turned out to be 0.04 µM. In addition, the IC50 in data set [3] is 15.5 µM. Moreover, in data set [4] (Days 1-3 and 7-9), the mean survival time came to 39.1 days and the tolerability result is “good tolerability”. Moreover, the tumor volume result in data set [4] (Days 1-3 and 7-9, vs vehicle, P=0.0506) is “significantly smaller tumors”. Further, the “body weight of treated animals” value in data set [4] (significant at Day 52 only) is given as “only slight reduction the body weight”. In addition, the “p53 (effect): induction of p53 protein” value in data set [5] (Arn8 cells stable transfected with a β-galactosidase reporter gene) is on record as “++”. Further, the “total β-galactosidase activity” value in data set [5] (Arn8 cells, 5 μM, 12 and 24 hours after treatment, vs DMSO control) is listed as “strong activity of β-galactosidase”. Moreover, in data set [5] (Arn8 cells, concentration inducing maximum of β-galactosidase activity), the “p53 (peak concentration in μM)” value is 8.0 µM. In addition, the “activation of p53-dependent transcription” value in data set [5] (Arn8 reporter cell line, β-galactosidase reporter activity) was “proved to activate p53-dependent transcription”.

In general, IC50 refers to the midpoint of a concentration-inhibition curve.
